Counter-ions that a name gives are not always drawn.
Tested on: clot lysis (fibrinolysis) in human citrated plasma, tPA-induced
Assay: Plasma-based clot lysis assay (5%)
Assay type: biochemical
Conditions: diluted human citrated plasma (platelet-poor, 5%), fibrinogen 3 μM, CaCl2 10 mM, tPA 0.2 nM, 37° C., OD 405 nm
Method: B-2. Plasma-based Clot Lysis Assay (5%)
The clot-lysis test system configures the kinetics of clot formation and degradation in vitro and allows quantifying modulation of the process by selected test compounds.
The test compounds were dissolved in 1% acetic acid and further complemented with an equal volume of DMSO. The resulting stock solutions were serially diluted in 0.5% acetic acid/50% DMSO. 1 μL aliquots of these solutions were placed into 384 well microplates (Greiner, black, transparent bottom), followed by 30 μL of diluted human citrated plasma (platelet-poor, final concentration: 5%; supplemented with fibrinogen, final concentration: 3 μM; dilution buffer: 20 mM HEPES, 150 mM NaCl, 0.01% Brij (pH 7)). The reactions were started by addition of […] of CaCl2 (final concentration: 10 mM), and tPA (tissue plasminogen activator, final concentration: 0.2 nM) in dilution buffer, followed by an additional volume of 20 μL dilution buffer for improved mixing. The reactions were incubated at 37° C. Clot formation and degradation was monitored spectrophotometrically by kinetic optical density measurements at 405 nm. IC50 values were determined by comparing the resulting time courses with the time course of a blank control reaction.

Row | Compound | IC50 | IC50 (hydrochloride)
1 | O=c1cc(C2CCNCC2)n2nc3nccnc3c2[nH]1 [Example 38, 7-(Piperidin-4-yl)pyrazino[2′,3′:3,4]pyrazolo[1,5-a]pyrimidin-9(10H)-one hydrochloride] | 60 nM | –
2 | O=c1cc(C2CCNCC2)n2nc3ccc(I)cc3c2[nH]1 [Example 48, 9-Iodo-4-(piperidin-4-yl)pyrimido[1,2-b]indazol-2(1H)-one hydrochloride] | 36 nM | –
3 | O=c1cc(C2CCNCC2)n2nc3ccccc3c2[nH]1 [Example 1, 4-(Piperidin-4-yl)pyrimido[1,2-b]indazol-2(1H)-one hydrochloride] | 51 nM | –
4 | N#Cc1cccc2nn3c(C4CCNCC4)cc(=O)[nH]c3c12 [Example 53, 2-Oxo-4-(piperidin-4-yl)-1,2-dihydropyrimido[1,2-b]indazole-10-carbonitrile hydrochloride] | – | 10 nM
5 | Cc1ccc(Cl)c2c1nn1c(C3CCNCC3)cc(=O)[nH]c21 [Example 100, 10-Chloro-7-methyl-4-(piperidin-4-yl)pyrimido[1,2-b]indazol-2(1H)-one hydrochloride] | 30 nM | –
6 | O=c1cc(C2CCNCC2)n2nc3cnccc3c2[nH]1 [Example 29, 4-(Piperidin-4-yl)pyrido[3′,4′:3,4]pyrazolo[1,5-a]pyrimidin-2(1H)-one hydrochloride] | 28 nM | –
7 | O=c1cc(C2CCNCC2)n2nc3nc(-c4ccccc4)ccc3c2[nH]1 [Example 44, 8-Phenyl-4-(piperidin-4-yl)pyrido[2′,3′:3,4]pyrazolo[1,5-a]pyrimidin-2(1H)-one hydrochloride] | 48 nM | –
8 | O=C(O)c1cccc2nn3c(C4CCNCC4)cc(=O)[nH]c3c12 [Example 106, 2-oxo-4-(piperidin-4-yl)-1,2-dihydropyrimido[1,2-b]indazole-10-carboxylic acid hydrochloride] | 420 nM | –
9 | CCOc1cccc2nn3c(C4CCNCC4)cc(=O)[nH]c3c12 [Example 26, 10-Ethoxy-4-(piperidin-4-yl)pyrimido[1,2-b]indazol-2(1H)-one hydrochloride] | 29 nM | –
10 | O=c1cc(C2CCNCC2)n2nc3ccncc3c2[nH]1 [Example 49, 4-(Piperidin-4-yl)pyrido[4′,3′:3,4]pyrazolo[1,5-a]pyrimidin-2(1H)-one] | 36 nM | –
11 | O=c1cc(C2CCNCC2)n2nc3ncc(-c4ccccc4)cc3c2[nH]1 [Example 45, 9-Phenyl-4-(piperidin-4-yl)pyrido[2′,3′:3,4]pyrazolo[1,5-a]pyrimidin-2(1H)-one hydrochloride] | 37 nM | –

Next, values leading:

Row | IC50 | IC50 (hydrochloride) | Compound
12 | 14 nM | – | CCC(C)c1cccc2nn3c(C4CCNCC4)cc(=O)[nH]c3c12 (stereo not drawn) [Example 72, 10-sec-Butyl-4-(piperidin-4-yl)pyrimido[1,2-b]indazol-2(1H)-one hydrochloride]
13 | 28 nM | – | O=c1cc(C2CCNCC2)n2nc3cccc(F)c3c2[nH]1 [Example 4, 10-Fluoro-4-(piperidin-4-yl)pyrimido[1,2-b]indazol-2(1H)-one hydrochloride]
14 | 11 nM | – | O=c1cc(C2CCNCC2)n2nc3ccc(F)c(-c4ccccc4)c3c2[nH]1 [Example 77, 9-Fluoro-10-phenyl-4-(piperidin-4-yl)pyrimido[1,2-b]indazol-2(1H)-one hydrochloride]
15 | 14 nM | – | O=c1cc(C2CCNCC2)n2nc3cccc(-c4ccccc4)c3c2[nH]1 [Example 56, 10-Phenyl-4-(piperidin-4-yl)pyrimido[1,2-b]indazol-2(1H)-one hydrochloride]
16 | 26 nM | – | O=c1cc(C2CCNCC2)n2nc3cccc(-c4cccs4)c3c2[nH]1 [Example 88, 4-(Piperidin-4-yl)-10-(2-thienyl)pyrimido[1,2-b]indazol-2(1H)-one hydrochloride]
17 | 19 nM | – | O=c1cc(C2CCNCC2)n2nc3cccc(-c4ccccc4Cl)c3c2[nH]1 [Example 64, 10-(2-Chlorophenyl)-4-(piperidin-4-yl)pyrimido[1,2-b]indazol-2(1H)-one hydrochloride]
18 | 25 nM | – | Cn1cc(-c2cccc3nn4c(C5CCNCC5)cc(=O)[nH]c4c23)cn1 [Example 87, 10-(1-Methyl-1H-pyrazol-4-yl)-4-(piperidin-4-yl)pyrimido[1,2-b]indazol-2(1H)-one hydrochloride]
19 | 18 nM | – | O=c1cc(C2CCNCC2)n2nc3cccc(-c4ccccc4F)c3c2[nH]1 [Example 95, 10-(2-Fluorophenyl)-4-(piperidin-4-yl)pyrimido[1,2-b]indazol-2(1H)-one]
20 | 27 nM | – | O=c1cc(C2CCNCC2)n2nc3ccc(F)c(-c4ccccc4F)c3c2[nH]1 [Example 92, 9-Fluoro-10-(2-fluorophenyl)-4-(piperidin-4-yl)pyrimido[1,2-b]indazol-2(1H)-one hydrochloride]
21 | 16 nM | – | Cc1ccc(Br)c2c1nn1c(C3CCNCC3)cc(=O)[nH]c21 [Example 75, 10-Bromo-7-methyl-4-(piperidin-4-yl)pyrimido[1,2-b]indazol-2(1H)-one hydrochloride]
22 | 24 nM | – | O=c1cc(C2CCNCC2)n2nc3cccc(C4CC4)c3c2[nH]1 [Example 61, 10-Cyclopropyl-4-(piperidin-4-yl)pyrimido[1,2-b]indazol-2(1H)-one hydrochloride]
23 | 17 nM | – | O=c1cc(C2CCNCC2)n2nc3nccc(-c4ccccc4)c3c2[nH]1 [Example 46, 10-Phenyl-4-(piperidin-4-yl)pyrido[2′,3′:3,4]pyrazolo[1,5-a]pyrimidin-2(1H)-one hydrochloride]
24 | 18 nM | – | O=c1cc(C2CCNCC2)n2nc3cccc(-c4ccccc4OC(F)(F)F)c3c2[nH]1 [Example 80, 4-(Piperidin-4-yl)-10-[2-(trifluoromethoxy)phenyl]pyrimido[1,2-b]indazol-2(1H)-on hydrochloride]
25 | 27 nM | – | O=c1cc(C2CCNCC2)n2nc3cccc(-n4cncn4)c3c2[nH]1 [Example 91, 4-(Piperidin-4-yl)-10-(1H-1,2,4-triazol-1-yl)pyrimido[1,2-b]indazol-2(1H)-one hydrochloride]
26 | 15 nM | – | O=c1cc(C2CCNCC2)n2nc3cccc(Cl)c3c2[nH]1 [Example 66, 10-Chloro-4-(piperidin-4-yl)pyrimido[1,2-b]indazol-2(1H)-one]
27 | 15 nM | – | O=c1cc(C2CCNCC2)n2nc3cccc(-c4cccnc4)c3c2[nH]1 [Example 58, 4-(Piperidin-4-yl)-10-(pyridin-3-yl)pyrimido[1,2-b]indazol-2(1H)-one hydrochloride]

From patent US10098883B2, “(Aza)pyridopyrazolopyrimidinones and indazolopyrimidinones and their use” (BAYER PHARMA AKTIENGESELLSCHAFT, priority 2013, dated 2018)
